Where “and” joins values, the source holds several entries; their conditions need not be identical. Identical values can stand only once. Inconclusive results and toxic doses are left out. Cut-off read from the data, not from the text of the source: active = T/C of 150% or more; inactive = T/C below 125%.
Tested on: L1210 leukemia ip in BDF1 mice, survival T/C
Test: NCI In Vivo Anticancer Drug Screen. Data for tumor model L1210 Leukemia (intraperitoneal) in B6D2F1 (BDF1) mice
Conditions: endpoint: mean survival time, higher = longer survival
In short: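 Each compound was tested against a transplantable tumor grown in mice. The endpoint was survival, with treated animals benchmarked against vehicle controls as a simple ratio.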

[1] = dose: 100.0 mg/kg/injection, schedule: Q04DX003 (ip), vehicle: saline with Tween-80
[2] = dose: 200.0 mg/kg/injection, schedule: Q04DX003 (ip), vehicle: saline with Tween-80
[3] = dose: 400.0 mg/kg/injection, schedule: Q04DX003 (ip), vehicle: saline with Tween-80
[4] = dose: 100.0 mg/kg/injection, schedule: Q04DX002 (ip), vehicle: Klucel (hydroxypropylcellulose) (HPC)
[5] = dose: 200.0 mg/kg/injection, schedule: Q04DX002 (ip), vehicle: Klucel (hydroxypropylcellulose) (HPC)
[6] = dose: 100.0 mg/kg/injection, schedule: Q01DX001 (ip), vehicle: carboxymethylcellulose (CMC)
[7] = dose: 200.0 mg/kg/injection, schedule: Q01DX001 (ip), vehicle: carboxymethylcellulose (CMC)
[8] = dose: 12.5 mg/kg/injection, schedule: Q04DX003 (ip), vehicle: saline
[9] = dose: 25.0 mg/kg/injection, schedule: Q04DX003 (ip), vehicle: saline
[10] = dose: 100.0 mg/kg/injection, schedule: Q04DX003 (ip), vehicle: Klucel (hydroxypropylcellulose) (HPC)
[11] = dose: 200.0 mg/kg/injection, schedule: Q04DX003 (ip), vehicle: Klucel (hydroxypropylcellulose) (HPC)
[12] = dose: 400.0 mg/kg/injection, schedule: Q04DX003 (ip), vehicle: Klucel (hydroxypropylcellulose) (HPC)
[13] = dose: 100.0 mg/kg/injection, schedule: Q01DX001 (ip), vehicle: saline
[14] = dose: 200.0 mg/kg/injection, schedule: Q01DX001 (ip), vehicle: saline
[15] = dose: 400.0 mg/kg/injection, schedule: Q01DX001 (ip), vehicle: saline
[16] = dose: 100.0 mg/kg/injection, schedule: Q01DX009 (ip), vehicle: saline with Tween-80

Measured: T/C

COc1cccc(C(=O)O)c1C(=O)c1ccc(C)cc1O
inactive: [1] 100 % of control | [2] 97 % of control | [3] 90 % of control

CN(C)C(=S)SCC(=O)[O][Sn]([c]1ccccc1)([c]1ccccc1)[c]1ccccc1
inactive: dose: 6.25 mg/kg/injection, schedule: Q04DX002 (ip), vehicle: saline with Tween-80 96 % of control | dose: 12.5 mg/kg/injection, schedule: Q04DX002 (ip), vehicle: saline with Tween-80 93 % of control | dose: 25.0 mg/kg/injection, schedule: Q04DX002 (ip), vehicle: saline with Tween-80 104 % of control

CC(C)=CCC(CCN(C)C)(C(N)=O)c1ccc2ccccc2c1 (configuration not stated)
inactive: dose: 12.5 mg/kg/injection, schedule: Q01DX009 (ip), vehicle: Klucel (hydroxypropylcellulose) (HPC) 93 % of control | dose: 25.0 mg/kg/injection, schedule: Q01DX009 (ip), vehicle: Klucel (hydroxypropylcellulose) (HPC) 86 % of control | dose: 50.0 mg/kg/injection, schedule: Q01DX009 (ip), vehicle: Klucel (hydroxypropylcellulose) (HPC) 91 % of control

O=c1[nH]c2ccccc2nc1C(Cl)(Cl)Cl
inactive: [4] 112 % of control | [5] 105 % of control

CCOC(=O)c1ccc(N(CCC(=O)COC(C)=O)C(C)=O)cc1
inactive: [6] 94 % of control | [7] 100 % of control | dose: 400.0 mg/kg/injection, schedule: Q01DX001 (ip), vehicle: carboxymethylcellulose (CMC) 102 % of control

O=C(Nc1ccc(Br)cc1)Oc1ccc(Nc2ccccc2)cc1
inactive: dose: 100.0 mg/kg/injection, schedule: Q01DX009 (ip), vehicle: Klucel (hydroxypropylcellulose) (HPC) 98 % of control | dose: 200.0 mg/kg/injection, schedule: Q01DX009 (ip), vehicle: Klucel (hydroxypropylcellulose) (HPC) 89 % of control | dose: 400.0 mg/kg/injection, schedule: Q01DX009 (ip), vehicle: Klucel (hydroxypropylcellulose) (HPC) 98 % of control

CCCCCCCCCCNC(=O)C[n+]1cccc(C(=O)Nc2ccccc2)c1
inactive: dose: 3.12 mg/kg/injection, schedule: Q01DX009 (ip), vehicle: saline with Tween-80 100 % of control | dose: 6.25 mg/kg/injection, schedule: Q01DX009 (ip), vehicle: saline with Tween-80 105 % of control | dose: 12.5 mg/kg/injection, schedule: Q01DX009 (ip), vehicle: saline with Tween-80 88 % of control | [8] 103 % of control | [9] 88 % of control

O=C(/C=C(/CC(=O)c1ccccc1)C(=O)c1ccccc1)c1ccccc1
inactive: [10] 103 % of control | [11] 95 % of control | [12] 101 % of control

CCCCCCCCCCCCCCCCCCNC(=O)Nc1cccc2ccccc12
inactive: dose: 100.0 mg/kg/injection, schedule: Q01DX009 (ip), vehicle: carboxymethylcellulose (CMC) 87 % of control | [4] 101 % of control | dose: 100.0 mg/kg/injection, schedule: Q04DX002 (ip), vehicle: carboxymethylcellulose (CMC) 87 % of control | dose: 100.0 mg/kg/injection, schedule: Q04DX003 (ip), vehicle: carboxymethylcellulose (CMC) 106 % of control | dose: 200.0 mg/kg/injection, schedule: Q01DX009 (ip), vehicle: carboxymethylcellulose (CMC) 87 % of control | [5] 101 % of control | dose: 200.0 mg/kg/injection, schedule: Q04DX002 (ip), vehicle: carboxymethylcellulose (CMC) 93 % of control and 95 % of control | dose: 200.0 mg/kg/injection, schedule: Q04DX003 (ip), vehicle: carboxymethylcellulose (CMC) 96 % of control | dose: 400.0 mg/kg/injection, schedule: Q01DX009 (ip), vehicle: carboxymethylcellulose (CMC) 94 % of control and 97 % of control | dose: 400.0 mg/kg/injection, schedule: Q04DX002 (ip), vehicle: carboxymethylcellulose (CMC) 93 % of control and 88 % of control | dose: 400.0 mg/kg/injection, schedule: Q04DX003 (ip), vehicle: carboxymethylcellulose (CMC) 90 % of control

O=c1[nH]c(-c2cccc([N+](=O)[O-])c2)nc2[nH]ncc12
inactive: dose: 25.0 mg/kg/injection, schedule: Q01DX001 (ip), vehicle: Klucel (hydroxypropylcellulose) (HPC) 94 % of control | dose: 50.0 mg/kg/injection, schedule: Q01DX001 (ip), vehicle: Klucel (hydroxypropylcellulose) (HPC) 94 % of control | dose: 100.0 mg/kg/injection, schedule: Q01DX001 (ip), vehicle: Klucel (hydroxypropylcellulose) (HPC) 98 % of control

Cc1cccnc1C(=O)O
inactive: dose: 50.0 mg/kg/injection, schedule: Q04DX003 (ip), vehicle: saline with Tween-80 94 % of control | [13] 94 % of control | [1] 95 % of control | [14] 94 % of control | [2] 91 % of control

O=C(O)CCNC(=S)Nc1ccc(S(=O)(=O)c2ccc(NC(=S)NCCC(=O)O)cc2)cc1
inactive: [13] 104 % of control | [14] 98 % of control | [15] 102 % of control

O=C(NCCO)Nc1cccc2c1CCCC2
inactive: dose: 100.0 mg/kg/injection, schedule: Q04DX002 (ip), vehicle: saline with Tween-80 108 % of control | dose: 200.0 mg/kg/injection, schedule: Q04DX002 (ip), vehicle: saline with Tween-80 104 % of control | dose: 400.0 mg/kg/injection, schedule: Q04DX002 (ip), vehicle: saline with Tween-80 87 % of control

O=C(NCc1ccccc1)c1ccccc1
inactive: [10] 97 % of control | [11] 95 % of control | [12] 100 % of control

O=C(/C(=C/c1cccc(Cl)c1)c1ccccc1)c1ccc(O)cc1
inactive: [6] 101 % of control | [7] 90 % of control

COc1cccc2c1C(=O)CC2
inactive: dose: 25.0 mg/kg/injection, schedule: Q01DX009 (ip), vehicle: acetone 101 % of control | dose: 50.0 mg/kg/injection, schedule: Q01DX009 (ip), vehicle: acetone 106 % of control | dose: 100.0 mg/kg/injection, schedule: Q01DX009 (ip), vehicle: acetone 103 % of control | [1] 87 % of control

CCC(Cl)COP(=O)(OCC(Cl)CC)C(CC)OP(=S)(OCC(Cl)CC)OCC(Cl)CC (configuration not stated)
inactive: dose: 87.5 mg/kg/injection, schedule: Q01DX009 (ip), vehicle: Klucel (hydroxypropylcellulose) (HPC) 95 % of control | dose: 175.0 mg/kg/injection, schedule: Q01DX009 (ip), vehicle: Klucel (hydroxypropylcellulose) (HPC) 99 % of control

CCNC(C)(C)C(S)c1ccc(Cl)s1 (configuration not stated)
inactive: dose: 50.0 mg/kg/injection, schedule: Q01DX009 (ip), vehicle: saline with Tween-80 106 % of control | [16] 114 % of control | [1] 103 % of control | [2] 94 % of control

Cc1cc2ccccc2nc1-c1ccccc1F
inactive: [13] 97 % of control | [14] 94 % of control | [15] 88 % of control

COc1ccccc1C1N(C)CCCN1C
inactive: dose: 6.25 mg/kg/injection, schedule: Q04DX003 (ip), vehicle: saline 96 % of control | [8] 92 % of control | [9] 101 % of control

OC1CC2CCC1CC2 (configuration not stated)
inactive: [16] 100 % of control | [1] 89 % of control | dose: 200.0 mg/kg/injection, schedule: Q01DX009 (ip), vehicle: saline with Tween-80 97 % of control | [2] 96 % of control | dose: 400.0 mg/kg/injection, schedule: Q01DX009 (ip), vehicle: saline with Tween-80 102 % of control | [3] 86 % of control

Reference: PubChem BioAssay AID248 (DTP/NCI, 2004)
